Laboratory results from patent publication US20090239941A1, “AMINO ACID DERIVATIVES” (PROXIMAGEN LTD., priority 2006, published 2009).

Tested on: 6-OHDA-lesioned rats
Test: Assessment of activity in 6-OHDA-lesioned rats (induction of rotational activity)
Format: in vivo, rat
Settings: p.o., 63.4 μmole/kg, after benserazide 10 mg/kg; rotations over 4 hours; male Wistar rats

## CC(C)CC(=O)Oc1ccc(C[C@H](N)C(N)=O)cc1OC(=O)CC(C)C.Cl [Example 5, (S)-2-[3,4-Bis-(3-methylbutyryloxy)-phenyl]-1-carbamoylethylammonium chloride]
  Duration of activity as % of that of L-Dopa: 71%
  Peak activity as % of that of L-Dopa: 118%
  Total activity (AUC activity, area under the locomotor-activity/time curve) as % of that of L-Dopa: 89%
